{"source": "patent US20260248820A1", "about": "“USES OF HYDROGENATED CANNABIDIOL (H4CBD) AND ADVANCED METABOLIC SYNDROME” (The Regents of the University of California, priority 2022, published 2026)", "key": {"[1]": {"test_system": "Otsuka Long-Evans Tokushima Fatty (OLETF) rat", "experiment": "Systolic blood pressure by DSI radiotelemetry", "type": "in vivo", "settings": "for Average increase of systolic blood pressure versus non-treated OLETF: after the 7th day of the dose regimen", "experimental": "Telemeter Implantation—At 16 weeks, OLETF rats (n=5) were implanted with DSI telemeters (HD-S10) in the abdominal cavity to measure systolic blood pressure. […] Activity was measured every hour for 15 minutes for the duration of the study. Data were analyzed using A.R.T. software (DSI, St. Paul, MN)."}, "[2]": {"test_system": "proteins involved in fatty acid uptake, metabolism and storage (liver)", "experiment": "Western blot of liver proteins involved in fatty acid uptake, metabolism and storage", "type": "in vivo, rat", "description": "(§1) Western Blot—Liver was used to measure proteins involved in fatty acid uptake, metabolism and storage. Densitometry values were quantified using ImageJ software (NIH) and normalized by correcting for densitometry values of representative protein bands below 37 kDa stained with Ponceau S. Results are reported as expression (%) compared to LETO."}, "[3]": {"test_system": "proteins involved in insulin signaling (soleus)", "experiment": "Western blot of soleus insulin signaling proteins", "type": "in vivo, rat", "description": "as §1, with “Blot—Soleus” for “Blot—Liver”, “insulin signaling.” for “fatty acid uptake, metabolism and storage.”"}, "[4]": {"test_system": "Otsuka Long-Evans Tokushima Fatty (OLETF) rat", "experiment": "Liver triglyceride content", "type": "in vivo", "settings": "p<0.05"}, "[5]": {"test_system": "Otsuka Long-Evans Tokushima Fatty (OLETF) rat", "experiment": "End of study fasting blood/plasma measurements (glucose, hormones, lipids, RAAS peptides)", "type": "in vivo", "design": "Plasma AngII higher than OLETF control / Plasma Ang 1-7 higher than OLETF control / Plasma aldosterone higher than OLETF control / Reduction of fasting insulin to glucagon ratio compared to OLETF / Reduction of circulating adiponectin compared to OLETF / Reduction of leptin compared to OLETF: concentration or dose not given beside the values", "description": "Tissue Collection—After the 4-week study and 3 days following the OGTT, animals were fasted overnight and tissues were collected the following morning.\nStatistics—All values are represented as mean #standard error mean (SEM) unless otherwise indicated. Means were compared by one-way ANOVA followed by Tukey's honest significant difference or unpaired, one-tailed t-test to assess significant differences among groups. Means and regressions were considered significant at p<0.05. Outliers were detected by ROUT (Q=1.0%) and removed; however, it should be noted that this was necessary for only 12 occurrences. All statistical procedures, including Pearson r correlations, were performed using GraphPad Prism 9.3.1 (GraphPad Software, Inc., San Diego, CA, USA).\nTissue Collection—After the 4-week study period, animals were fasted overnight, and tissues were collected at sacrifice the following morning. BM was recorded before animals were decapitated and trunk blood was collected.\nPlasma Analysis—Plasma concentrations of adiponectin (Millipore Sigma; EZRADP-62K), aldosterone (R&D Systems; KGE016), angiotensin 1-7 (Phoenix Pharmaceuticals; EKE-002-01), angiotensin II (Phoenix Pharmaceuticals; EK-002-12CE), corticosterone (R&D Systems; KGE009), ghrelin (Sigma Aldrich; RAB0207), glucagon (Crystal Chemicals; 81519), leptin (Millipore Sigma; EZRL-83K), non-esterified fatty acid (NEFA) (Wako Chemicals) and triglycerides (Cayman Chemical; 10010303) were measured in fasted, end of study plasma samples. All samples were analyzed in duplicate and run in a single assay with intra-assay and percent CV of <10% for all assays."}, "[6]": {"test_system": "Otsuka Long-Evans Tokushima Fatty (OLETF) rat", "experiment": "Oral Glucose Tolerance Test (OGTT)", "type": "in vivo", "experimental": "Male lean Long Evan's Tokushima Otsuka (LETO) rats and obese Otsuka Long Evans Tokushima Fatty (OLETF) rats (Japan SLC Inc., Hamamatsu, Japan), both 14 weeks of age were assigned to the following groups (n=8/group): (1) vehicle-dosed LETO (LETO), (2) vehicle-dosed OLETF (OLETF), and (3) H4CBD-treated (200 mg/kg/day×4 weeks) OLETF (H4CBD). Rats were maintained in a specific pathogen-free, climate-controlled facility on a 12-hour light: dark cycle (07:00-19:00 and 19:00-07:00, respectively). All animals had free access to water and were fed rat chow (Teklad Global; fat 9.0%; carbohydrate 44.9%; protein 19.0%) ad libitum. Treatment intervention was initiated at 41 weeks of age. Phenotypic data (i.e. body mass, food intake) was collected daily for all animals.\nPurified H4CBD (>99%) was suspended in food grade sesame oil and administered by oral gavage at a dose of 200 mg/kg.\nOral Glucose Tolerance Test (OGTT)—At approximately 45 weeks of age and following an overnight fast, oGTTs were performed as previously described. The positive incremental areas under the curve for glucose (AUCglucose) and insulin (AUCinsulin) were calculated by the trapezoidal method. Insulin resistance index (IRI) was calculated by AUCglucosex AUCinsulin/100, as previously described."}, "[7]": {"experiment": "Drug bioavailability detection in heparinized plasma (HPLC, MS/MS)", "type": "in vivo, rat", "settings": "peak area count <1500 considered negative, 200 mg/kg oral gavage", "experimental": "Drug Bioavailability Detection—H4CBD bioavailability in heparinized plasma was determined via HPLC and MS/MS. In brief, 100 μL heparinized rat plasma was diluted with 100 μL Mass Spec Gold human serum (Golden West Diagnostics, MSG3200). The samples were analyzed using a WATERS TQS-Micro. The first quadrupole was set to 319.16 m/z and the third quadrupole isolated fragments of 181.02 m/z.\nDrug Bioavailability Detection—H4CBD bioavailability in heparinized plasma was determined via HPLC and MS chromatography."}, "[8]": {"settings": "H4CBD-treated OLETF rats, end of study fasting, mean ± SEM"}, "[9]": {"settings": "H4CBD-treated OLETF rats, end of study, mean ± SEM"}}, "note": "“Also recorded” adds a separate entry of the source."}
{"smiles": "CCCCCc1cc(O)c(C2CC(C)CCC2C(C)C)c(O)c1", "note": "(stereo not drawn) [H4CBD, 2-(2-isopropyl-5-methylcyclohexyl)-5-pentylbenzene-1,3-diol]", "values": [{"measurement": "Systolic blood pressure, treated vs non-treated OLETF", "setting": "[1]; 4 weeks telemetry", "result": "No significant difference; also recorded: did not reduce SBP"}, {"measurement": "Average increase of systolic blood pressure versus non-treated OLETF", "setting": "[1]", "result": 4, "unit": "%"}, {"measurement": "Average increase of systolic blood pressure versus non-treated OLETF", "setting": "[1]; H4CBD n=3, OLETF n=2", "result": 6.5, "unit": "mmHg"}, {"measurement": "Downstream signaling proteins GPAM, DGAT1, CPTIA, ACOX1, ApoB and PRDX6", "setting": "[2]; data not shown", "result": "comparable between groups"}, {"measurement": "FATP5 expression", "setting": "[2]; increased 109% in OLETF vs LETO", "result": "not effected"}, {"measurement": "Increase of FATP2 expression", "setting": "[2]; p<0.05", "result": 60, "unit": "%"}, {"measurement": "Rescue (increase) of CD36 expression", "setting": "[2]; p<0.05", "result": 48, "unit": "%"}, {"measurement": "Translocated (membrane) GLUT4", "setting": "[3]; membrane fraction of skeletal muscle", "result": "no changes"}, {"measurement": "AMPK expression", "setting": "[3]; soleus", "result": "No changes were detected"}, {"measurement": "Ratio of membrane to cytosolic GLUT4", "setting": "[3]; soleus", "result": "unchanged among the groups"}, {"measurement": "Reduction of PI3K expression compared to OLETF", "setting": "[3]; soleus", "result": 47, "unit": "%"}, {"measurement": "pAMPK expression", "setting": "[3]; soleus", "result": "No changes were detected"}, {"measurement": "pAMPK/AMPK expression", "setting": "[3]; soleus", "result": "No changes were detected"}, {"measurement": "pIR/IR", "setting": "[3]; soleus", "result": "not changed"}, {"measurement": "Phosphorylation of the insulin receptor (pIR)", "setting": "[3]; soleus protein expression", "result": "No changes were detected"}, {"measurement": "Reduction of Akt expression compared to OLETF", "setting": "[3]; soleus, cytosolic, p<0.05", "result": 32, "unit": "%"}, {"measurement": "Reduction of pAkt expression compared to OLETF", "setting": "[3]; soleus, cytosolic, p<0.05", "result": 58, "unit": "%"}, {"measurement": "Reduction of pAkt:Akt ratio compared to OLETF", "setting": "[3]; soleus, p<0.01", "result": 35, "unit": "%"}, {"measurement": "Increase of native insulin receptor (IR) expression over OLETF", "setting": "[3]; soleus, p<0.05", "result": 54, "unit": "%"}, {"measurement": "Cytosolic GLUT4 higher than OLETF", "setting": "[3]; soleus, tended, p=0.06", "result": 58, "unit": "%"}, {"measurement": "Reduction of liver triglyceride content", "setting": "[4]", "result": 28, "unit": "%"}, {"measurement": "Fasting blood glucose higher than LETO", "setting": "[5]; 45 weeks of age, p<0.0001", "result": 2.2, "unit": "fold"}, {"measurement": "Fasting blood glucose higher than OLETF", "setting": "[5]; 45 weeks of age, p<0.01", "result": 56, "unit": "%"}, {"measurement": "Glucose:Insulin (mmol/μIU × 10^4)", "setting": "[5]; [8]", "result": "10.9 ± 1.1^ mmol/μIU × 10^4"}, {"measurement": "Insulin:Glucagon (μIU/pg)", "setting": "[5]; [8]", "result": "0.6 ± 0.0^ μIU/pg"}, {"measurement": "Fasting glucagon", "setting": "[5]; [9]", "result": "19.4 ± 9.4", "unit": "pg/mL"}, {"measurement": "Fasting insulin (μIU/mL)", "setting": "[5]; [9]", "result": "13.9 ± 0.4^# μIU/mL"}, {"measurement": "Fasting blood glucose (mmol/L)", "setting": "[5]; H4CBD-treated OLETF rats, end of study, mean ± SEM, n = 8", "result": "15.8 ± 1.9^†£ mmol/L"}, {"measurement": "Fasted plasma NEFA", "setting": "[5]; LETO, OLETF, H4CBD", "result": "not different among groups"}, {"measurement": "Increase of fasting plasma insulin over OLETF", "setting": "[5]; end of study", "result": 10, "unit": "%"}, {"measurement": "Plasma glucagon, OLETF versus H4CBD", "setting": "[5]; end of study fasting", "result": "not different"}, {"measurement": "Plasma Ang 1-7 higher than OLETF control", "setting": "[5]; end of study plasma", "result": 26, "unit": "%"}, {"measurement": "Plasma AngII higher than OLETF control", "setting": "[5]; end of study plasma", "result": 24, "unit": "%"}, {"measurement": "Plasma aldosterone higher than OLETF control", "setting": "[5]; end of study plasma, p=0.052", "result": 150, "unit": "%"}, {"measurement": "Plasma corticosterone", "setting": "[5]; fasting plasma, LETO, OLETF, H4CBD", "result": "comparable amongst the groups"}, {"measurement": "Plasma ghrelin greater than the other groups", "setting": "[5]; fasting plasma, p<0.01 vs OLETF, p<0.05 vs LETO", "result": 75, "unit": "%"}, {"measurement": "Reduction of circulating adiponectin compared to OLETF", "setting": "[5]; fasting plasma, p<0.05", "result": 40, "unit": "%"}, {"measurement": "Reduction of leptin compared to OLETF", "setting": "[5]; fasting plasma, p<0.05", "result": 47, "unit": "%"}, {"measurement": "Leptin:adiponectin ratio", "setting": "[5]; fasting plasma, ratio 30% lower in OLETF than LETO", "result": "did not modulate the ratio further"}, {"measurement": "Fasted plasma TG", "setting": "[5]; p<0.0001 OLETF vs. H4CBD, TG 147% higher in OLETF than LETO", "result": "reduced fasted plasma TG to LETO control levels"}, {"measurement": "Increase of fasting glucose to insulin ratio compared to OLETF", "setting": "[5]; p<0.05", "result": 47, "unit": "%"}, {"measurement": "Reduction of fasting insulin to glucagon ratio compared to OLETF", "setting": "[5]; p<0.05", "result": 64, "unit": "%"}, {"measurement": "Glucose response curve to OGTT", "setting": "[6]; % baseline, p<0.01 OLETF vs. H4CBD", "result": "lowest"}, {"measurement": "Reduction of insulin resistance index (IRI)", "setting": "[6]; IRI = AUCglucose x AUCinsulin/100, p<0.05 OLETF vs. H4CBD", "result": 23, "unit": "%"}, {"measurement": "Time of blood glucose peak after glucose bolus", "setting": "[6]; OGTT at about 45 weeks, overnight fast, treated and non-treated OLETF", "result": 60, "unit": "min"}, {"measurement": "Reduction of overall AUCglucose from OLETF", "setting": "[6]; OGTT, p<0.001", "result": 29, "unit": "%"}, {"measurement": "Plasma insulin response to OGTT", "setting": "[6]; response abolished in OLETF", "result": "not rescued"}, {"measurement": "H4CBD in end of study plasma", "setting": "[7]", "result": "only treated animals received drug; also recorded: only detected in plasma from treated rats"}]}
